Measurements: ChEMBL document CHEMBL1201862, “PubChem BioAssay data set” (2004)
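Briefly, cells in 96-well plates were exposed to five compound concentrations for 48 h, and endpoints were estimated by linear interpolation. GI50: concentration for 50% inhibition of growth.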 Activity calls are given as the source filed them. No stated cut-off is given here; in the data, active = GI50 up to about 1.1 µM and inactive = higher.

Columns and labels:
Test in all cases: NCI anticancer screen, dose series, 48 h
T47D = system: T47D
OVCAR-3 = system: OVCAR-3
KM12 = system: KM12
HCT-116 = system: HCT-116
SK-MEL-2 = system: SK-MEL-2
PC-3 = system: PC-3
SF-268 = system: SF-268
MDA-N = system: MDA-N
MOLT-4 = system: MOLT-4
A549 = system: A549
NCI-H226 = system: NCI-H226
CCRF-CEM = system: CCRF-CEM
SN12C = system: SN12C
786-0 = system: 786-0
SK-OV-3 = system: SK-OV-3
UACC-257 = system: UACC-257
SNB-75 = system: SNB-75
DU-145 = system: DU-145
SR = system: SR
A498 = system: A498

Measured: GI50

O=P1(Cc2ccccc2)N(Cc2ccccc2)[C@@H]2CCCC[C@H]2N1Cc1ccccc1
inactive: T47D 5.48 µM | OVCAR-3 7.23 µM | KM12 5.86 µM | HCT-116 6.73 µM | SK-MEL-2 11.2 µM | PC-3 4.18 µM | SF-268 11.1 µM | MDA-N 6.82 µM | MOLT-4 2.72 µM | A549 6.17 µM | NCI-H226 2.2 µM | CCRF-CEM 4.76 µM | SN12C 10.4 µM | 786-0 13 µM | SK-OV-3 13 µM | UACC-257 6.41 µM | SNB-75 6.79 µM | DU-145 12.6 µM | SR 2.69 µM

COc1ccc(C2N(c3ccc(F)cc3)C(=O)N3C(c4ccc(OC)cc4)N(c4ccc(F)cc4)C(=O)N23)cc1 (stereo not drawn)
inactive: T47D > 100 µM | OVCAR-3 > 100 µM | KM12 > 100 µM | HCT-116 > 100 µM | SK-MEL-2 > 100 µM | PC-3 > 100 µM | SF-268 > 100 µM | MDA-N > 100 µM | A498 > 100 µM | A549 > 100 µM | CCRF-CEM > 100 µM | SN12C > 100 µM | 786-0 > 100 µM | UACC-257 > 100 µM | SNB-75 > 100 µM | DU-145 > 100 µM | SR 34 µM

O=C(O)CO[C@@]12C#C/C=C\C#C[C@@H]3N(C(=O)Oc4ccccc4)c4ccccc4[C@]14O[C@@]34CCC2
inactive: T47D 10.3 µM | OVCAR-3 47.1 µM | KM12 17.6 µM | HCT-116 33.4 µM | SK-MEL-2 16.2 µM | PC-3 26.2 µM | SF-268 14.3 µM | MDA-N 14.9 µM | A498 59.3 µM | MOLT-4 28.8 µM | A549 > 100 µM | NCI-H226 71.9 µM | CCRF-CEM 29.7 µM | SN12C 30.5 µM | 786-0 26.9 µM | SK-OV-3 6.75 µM | UACC-257 55.7 µM | DU-145 43.3 µM | SR 55.2 µM

COc1cccc2nc3ccccc3nc12
inactive: T47D 76 µM | OVCAR-3 91 µM | KM12 74.1 µM | HCT-116 38.5 µM | PC-3 25.5 µM | SF-268 87.9 µM | MDA-N > 100 µM | A498 76.9 µM | MOLT-4 60.8 µM | A549 54.2 µM | NCI-H226 45.5 µM | CCRF-CEM 43.4 µM | SN12C 71.4 µM | 786-0 74.1 µM | SK-OV-3 > 100 µM | UACC-257 91.2 µM | SNB-75 60 µM | DU-145 > 100 µM | SR 44.1 µM

Cc1cc(C)c(N[S+]([O-])c2cccc(C(F)(F)F)c2)c(C)c1 (stereo not drawn)
inactive: T47D > 100 µM | OVCAR-3 > 100 µM | KM12 > 100 µM | PC-3 > 100 µM | SF-268 > 100 µM | MDA-N > 100 µM | A498 > 100 µM | MOLT-4 > 100 µM | A549 > 100 µM | NCI-H226 > 100 µM | CCRF-CEM > 100 µM | SN12C > 100 µM | 786-0 > 100 µM | UACC-257 > 100 µM | DU-145 > 100 µM | SR > 100 µM

O=c1cc(CNC2CCCC2)[nH]c(=O)[nH]1
inactive: T47D > 100 µM | OVCAR-3 > 100 µM | KM12 > 100 µM | HCT-116 > 100 µM | SK-MEL-2 > 100 µM | PC-3 > 100 µM | SF-268 > 100 µM | MDA-N > 100 µM | A498 > 100 µM | MOLT-4 > 100 µM | A549 > 100 µM | CCRF-CEM > 100 µM | SN12C > 100 µM | 786-0 > 100 µM | SK-OV-3 > 100 µM | UACC-257 > 100 µM | SNB-75 > 100 µM | DU-145 > 100 µM | SR > 100 µM

C#CCOCC12C=CC(O1)C1C(=O)N(C)C(=O)C12 (stereo not drawn)
inactive: T47D > 100 µM | OVCAR-3 > 100 µM | KM12 > 100 µM | HCT-116 > 100 µM | PC-3 > 100 µM | SF-268 > 100 µM | MDA-N > 100 µM | A498 > 100 µM | MOLT-4 > 100 µM | A549 > 100 µM | NCI-H226 > 100 µM | CCRF-CEM > 100 µM | SN12C > 100 µM | 786-0 > 100 µM | SK-OV-3 > 100 µM | SNB-75 > 100 µM | DU-145 > 100 µM | SR > 100 µM

CS(=O)(=O)CCC(N)P(=O)(O)O (stereo not drawn)
inactive: T47D > 100 µM | OVCAR-3 > 100 µM | KM12 > 100 µM | HCT-116 > 100 µM | SK-MEL-2 > 100 µM | PC-3 > 100 µM | SF-268 > 100 µM | MDA-N > 100 µM | MOLT-4 > 100 µM | A549 > 100 µM | NCI-H226 > 100 µM | CCRF-CEM > 100 µM | SN12C > 100 µM | 786-0 > 100 µM | SK-OV-3 > 100 µM | UACC-257 > 100 µM | SNB-75 > 100 µM | DU-145 > 100 µM | SR > 100 µM

O=C1CC(C(O)CO)CC(=O)N1 (stereo not drawn)
inactive: T47D > 100 µM | OVCAR-3 > 100 µM | KM12 > 100 µM | HCT-116 > 100 µM | PC-3 > 100 µM | SF-268 > 100 µM | MDA-N > 100 µM | A498 > 100 µM | MOLT-4 > 10 µM | A549 > 100 µM | NCI-H226 > 100 µM | CCRF-CEM > 100 µM | SN12C > 100 µM | 786-0 > 100 µM | UACC-257 > 100 µM | DU-145 > 100 µM | SR > 100 µM

N#CCCSC1SC(=C2SC3=C(SCCS3)S2)SC1SCCC#N (stereo not drawn)
inactive: T47D > 100 µM | OVCAR-3 > 100 µM | HCT-116 > 100 µM | SK-MEL-2 > 100 µM | PC-3 > 100 µM | SF-268 > 100 µM | MDA-N > 100 µM | A498 > 100 µM | MOLT-4 > 100 µM | A549 > 100 µM | CCRF-CEM > 100 µM | SN12C > 100 µM | 786-0 > 100 µM | UACC-257 > 100 µM | DU-145 > 100 µM | SR > 100 µM

C=C(COC(=O)C(C)C)[C@H]1Oc2ccc(C(C)=O)cc2[C@@H]1OC(=O)C(C)C
inactive: T47D > 100 µM | OVCAR-3 > 100 µM | KM12 > 100 µM | HCT-116 > 100 µM | SK-MEL-2 > 100 µM | PC-3 > 100 µM | SF-268 > 100 µM | MDA-N > 100 µM | MOLT-4 > 100 µM | A549 > 100 µM | NCI-H226 > 100 µM | CCRF-CEM > 100 µM | SN12C > 100 µM | 786-0 > 100 µM | SK-OV-3 > 100 µM | UACC-257 > 100 µM | SNB-75 > 100 µM | DU-145 > 100 µM | SR > 100 µM
